Drawing on US12331046B2, “CTPS1 inhibitors and uses thereof” (Nimbus Clotho, Inc., priority 2020, dated 2025), this text covers IC50 for 39 compounds.

The structures appear in SMILES notation. pIC50: −log10 of the molar value. Where a name gives a salt, the structure may show the parent alone.

For this assay, the target named is human CTPS1 (Homo sapiens (Human), UniProt P17812). The assay can be described thus: hCTPS1 biochemical assay (ADP-Glo). The note with it: hCTPS1 25 nM, ATP 120 uM, UTP 160 uM, GTP 60 uM, L-Glutamine 100 uM, 25 degrees C. On the technique in general: In ADP-Glo the light output rises with the ADP produced.
Sequence of human CTPS1 (P17812 whole entry): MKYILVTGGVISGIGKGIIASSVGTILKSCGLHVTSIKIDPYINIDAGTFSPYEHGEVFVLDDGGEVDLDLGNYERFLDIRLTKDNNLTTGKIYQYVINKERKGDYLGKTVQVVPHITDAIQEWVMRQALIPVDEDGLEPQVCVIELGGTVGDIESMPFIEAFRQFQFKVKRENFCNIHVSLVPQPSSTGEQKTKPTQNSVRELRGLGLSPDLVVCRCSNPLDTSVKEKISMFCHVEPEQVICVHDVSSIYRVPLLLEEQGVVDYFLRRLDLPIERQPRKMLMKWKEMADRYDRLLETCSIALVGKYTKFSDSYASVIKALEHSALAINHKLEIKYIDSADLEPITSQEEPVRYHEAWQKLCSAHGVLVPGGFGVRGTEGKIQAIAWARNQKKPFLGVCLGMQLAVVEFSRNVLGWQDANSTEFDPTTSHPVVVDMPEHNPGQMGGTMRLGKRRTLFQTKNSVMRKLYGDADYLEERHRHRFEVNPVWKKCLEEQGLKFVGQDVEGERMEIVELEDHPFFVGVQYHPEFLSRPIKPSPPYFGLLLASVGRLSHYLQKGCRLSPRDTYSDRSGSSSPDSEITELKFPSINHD

As to `CCOc1cncc(-c2cnc(C(=O)NC(CCCN(C)C)c3cc(NS(=O)(=O)C4CC4)ccn3)s2)n1` (stereo not drawn) [I-173, N-(1-(4-(cyclopropanesulfonamido)pyridin-2-yl)-4-(dimethylamino)butyl)-5-(6-ethoxypyrazin-2-yl)thiazole-2-carboxamide, formic acid salt], the pIC50 – broadly, the negative decadic logarithm of the IC50, by convention in mol/L – is more than 7.00.
The compound `CCC(NC(=O)c1ncc(-c2cnn3ccc(Cl)cc23)s1)c1cc(NS(=O)(=O)C2CC2)ccn1` (stereo not drawn) [I-174] had a pIC50 of more than 7.00.
Compound `CCOc1cncc(-c2cnc(C(=O)NC(CCN3CCCC3)c3cc(NS(=O)(=O)C4CC4)ccn3)s2)n1` (stereo not drawn) [I-175, N-(1-(4-(cyclopropanesulfonamido)pyridin-2-yl)-3-(pyrrolidin-1-yl)propyl)-5-(6-ethoxypyrazin-2-yl)thiazole-2-carboxamide] had a negative-log IC50 (pIC50) of more than 7.00.
As for `CCOc1cncc(-c2cnc(C(=O)NC(CCN3CCCCC3)c3cc(NS(=O)(=O)C4CC4)ccn3)s2)n1` (stereo not drawn) [I-176, N-(1-(4-(cyclopropanesulfonamido)pyridin-2-yl)-3-(piperidin-1-yl)propyl)-5-(6-ethoxypyrazin-2-yl)thiazole-2-carboxamide], the pIC50 is more than 7.00.
As for `O=C(NCc1cc(NS(=O)(=O)C2CC2)ccn1)c1ncc(-c2cnn3ccc(C(F)(F)F)cc23)s1` [I-177], the pIC50 is more than 7.00.
Compound `CCOc1cncc(-c2cnc(C(=O)NC(C)(CCOC)c3cc(NS(=O)(=O)C4CC4)ccn3)s2)n1` (stereo not drawn) [I-178] showed a pIC50 of 6.00 to 7.00.
For `CCOc1cncc(-c2cnc(C(=O)NC(CCN3CCOCC3)c3cc(NS(=O)(=O)C4CC4)ccn3)s2)n1` (stereo not drawn) [I-179, N-(1-(4-(cyclopropanesulfonamido)pyridin-2-yl)-3-morpholinopropyl)-5-(6-ethoxypyrazin-2-yl)thiazole-2-carboxamide], the negative-log IC50 (pIC50) is more than 7.00.
`CCc1nc2ccc(C(=O)NCc3cc(NS(=O)(=O)C4CC4)ccn3)cc2[nH]c1=O` [I-180, N-((4-(cyclopropanesulfonamido)pyridin-2-yl)methyl)-2-ethyl-3-oxo-3,4-dihydroquinoxaline-6-carboxamide] had a negative-log IC50 (pIC50) not above 6.00.
In turn, `CCOc1cncc(-c2cnc(C(=O)N3CCNCC3c3ccnc(NS(=O)(=O)C4CC4)n3)s2)n1` (stereo not drawn) [I-181, N-(4-{1-[5-(6-ethoxypyrazin-2-yl)-1,3-thiazole-2-carbonyl]piperazin-2-yl}pyrimidin-2-yl)cyclopropanesulfonamide] had a pIC50 of 6.00 to 7.00.
On to `CCOc1cncc(-c2cnc(C(=O)NC(CCN3CCC3)c3cc(NS(=O)(=O)C4CC4)ccn3)s2)n1` (stereo not drawn) [I-182, N-(3-(azetidin-1-yl)-1-(4-(cyclopropanesulfonamido)pyridin-2-yl)propyl)-5-(6-ethoxypyrazin-2-yl)thiazole-2-carboxamide], for which the negative logarithm of the IC50 (pIC50) was not above 6.00.
The same measure for `CCOc1cncc(-c2cnc(C(=O)N[C@@H](CCOC)c3cc(NS(=O)(=O)C4CC4)ccn3)s2)n1` [I-183, (S)—N-(1-(4-(cyclopropanesulfonamido)pyridin-2-yl)-3-methoxypropyl)-5-(6-ethoxypyrazin-2-yl)thiazole-2-carboxamide]: more than 7.00; for `CCOc1cncc(-c2cnc(C(=O)N[C@H](CCOC)c3cc(NS(=O)(=O)C4CC4)ccn3)s2)n1` [I-184, (R)—N-(1-(4-(cyclopropanesulfonamido)pyridin-2-yl)-3-methoxypropyl)-5-(6-ethoxypyrazin-2-yl)thiazole-2-carboxamide]: more than 7.00.
The same measure for `Cc1cc2c(-c3cnc(C(=O)NCc4cc(NS(=O)(=O)C5CC5)ccn4)s3)cncn2n1` [I-185]: 6.00 to 7.00; for `CCOc1cncc(-c2cnc(C(=O)NC(CCOC)c3cc(NS(=O)(=O)C4CC4)ccn3)s2)n1` (stereo not drawn) [I-186]: more than 7.00.
The same measure for `CCOc1cncc(-c2cnc(C(=O)N[C@@H](COC)c3cc(NS(=O)(=O)C4CC4)ccn3)s2)n1` [I-187]: more than 7.00; for `CCOc1cncc(-c2cnc(C(=O)N[C@H](COC)c3cc(NS(=O)(=O)C4CC4)ccn3)s2)n1` [I-188]: more than 7.00.
For `CCOc1cncc(-c2cnc(C(=O)N[C@H](CCN(C)C)c3cc(NS(=O)(=O)C4CC4)ccn3)s2)n1` [I-189, (R)—N-(1-(4-(cyclopropanesulfonamido)pyridin-2-yl)-3-(dimethylamino)propyl)-5-(6-ethoxypyrazin-2-yl)thiazole-2-carboxamide], the negative-log IC50 (pIC50) is more than 7.00.
Take `CCOc1cncc(-c2cnc(C(=O)N[C@@H](CCN(C)C)c3cc(NS(=O)(=O)C4CC4)ccn3)s2)n1` [I-190, (S)—N-(1-(4-(cyclopropanesulfonamido)pyridin-2-yl)-3-(dimethylamino)propyl)-5-(6-ethoxypyrazin-2-yl)thiazole-2-carboxamide]: the pIC50 was more than 7.00.
In turn, `O=C(NCc1cc(NS(=O)(=O)C2CC2)ccn1)c1ncc(-n2cnc3ccc(Cl)cc32)s1` [I-193, 5-(6-chloro-1H-benzo[d]imidazol-1-yl)-N-((4-(cyclopropanesulfonamido)pyridin-2-yl)methyl)thiazole-2-carboxamide] gave a pIC50 of 6.00 to 7.00.
The figure for `CCOc1cncc(-c2cnc(C(=O)NC(COC)c3cc(NS(=O)(=O)C4CC4)ccn3)s2)n1` (stereo not drawn) [I-194] is more than 7.00; for `CCOc1cncc(-c2ccc(C(=O)NCc3nc(NS(=O)(=O)C4CC4)cs3)nc2)n1` [I-195, N-[(4-cyclopropanesulfonamido-1,3-thiazol-2-yl)methyl]-5-(6-ethoxypyrazin-2-yl)pyridine-2-carboxamide] it is 6.00 to 7.00; for `CCc1ccn2ncc(-c3cnc(C(=O)NCc4cc(NS(=O)(=O)C5CC5)ccn4)s3)cc12` [I-196, N-((4-(cyclopropanesulfonamido)pyridin-2-yl)methyl)-5-(5-ethylpyrrolo[1,2-b]pyridazin-3-yl)thiazole-2-carboxamide] it is more than 7.00.
`O=C(NCc1cc(NS(=O)(=O)C2CC2)ccn1)c1ncc(-c2cnn3ccc(Cl)cc23)s1` [I-197] gave a pIC50 of more than 7.00.
The compound `CCOc1cncc(-c2cnc(C(=O)N[C@@H](CN3CCCC3)c3cc(NS(=O)(=O)C4CC4)ccn3)s2)n1` [I-198, (S)—N-(1-(4-(cyclopropanesulfonamido)pyridin-2-yl)-2-(pyrrolidin-1-yl)ethyl)-5-(6-ethoxypyrazin-2-yl)thiazole-2-carboxamide] gave a negative-log IC50 (pIC50) of more than 7.00.
On to `CCOc1cncc(-c2cnc(C(=O)N[C@H](CN3CCCC3)c3cc(NS(=O)(=O)C4CC4)ccn3)s2)n1` [I-199, (R)—N-(1-(4-(cyclopropanesulfonamido)pyridin-2-yl)-2-(pyrrolidin-1-yl)ethyl)-5-(6-ethoxypyrazin-2-yl)thiazole-2-carboxamide], for which the pIC50 is more than 7.00.
As to `O=C(NCc1cc(NS(=O)(=O)C2CC2)ccn1)c1ncc(-c2cnn3cccc3c2)s1` [I-200, N-((4-(cyclopropanesulfonamido)pyridin-2-yl)methyl)-5-(pyrrolo[1,2-b]pyridazin-3-yl)thiazole-2-carboxamide], the pIC50 is 6.00 to 7.00.
As to `CCOc1cncc(-c2cnc(C(=O)NC(CCN(C)C)c3cc(NS(=O)(=O)C4CC4)ccn3)s2)n1` (stereo not drawn) [I-201, N-(1-(4-(cyclopropanesulfonamido)pyridin-2-yl)-3-(dimethylamino)propyl)-5-(6-ethoxypyrazin-2-yl)thiazole-2-carboxamide], the pIC50 was more than 7.00.
As for `O=C(NCc1cc(NS(=O)(=O)C2CC2)ccn1)c1ncc(-c2cnn3cc(Cl)ccc23)s1` [I-202], the pIC50 is 6.00 to 7.00.
The figure for `CCOc1cncc(-c2cnc(C(=O)N[C@H](CN3CCNCC3)c3cc(NS(=O)(=O)C4CC4)ccn3)s2)n1` [I-205, (R)—N-(1-(4-(cyclopropanesulfonamido)pyridin-2-yl)-2-(piperazin-1-yl)ethyl)-5-(6-ethoxypyrazin-2-yl)thiazole-2-carboxamide] is more than 7.00; for `CCOc1cncc(-c2cnc(C(=O)N[C@@H](CN3CCNCC3)c3cc(NS(=O)(=O)C4CC4)ccn3)s2)n1` [I-206, (S)—N-(1-(4-(cyclopropanesulfonamido)pyridin-2-yl)-2-(piperazin-1-yl)ethyl)-5-(6-ethoxypyrazin-2-yl)thiazole-2-carboxamide] it is more than 7.00.
Consider `CCOc1cncc(-c2cnc(C(=O)NC(CN3CCN(C)CC3)c3cc(NS(=O)(=O)C4CC4)ccn3)s2)n1` (stereo not drawn) [I-207], for which the negative logarithm of the IC50 (pIC50) is more than 7.00.
The compound `CCOc1cncc(-c2cnc(C(=O)NC(CN3CCCC3)c3cc(NS(=O)(=O)C4CC4)ccn3)s2)n1` (stereo not drawn) [I-208] had a negative logarithm of the IC50 (pIC50) of more than 7.00.
`CCOc1cncc(-c2cnc(C(=O)N3CCOCC3c3cc(NS(=O)(=O)C4CC4)ccn3)s2)n1` (stereo not drawn) [I-209, N-(2-{4-[5-(6-ethoxypyrazin-2-yl)-1,3-thiazole-2-carbonyl]morpholin-3-yl}pyridin-4-yl)cyclopropanesulfonamide]: the pIC50 was more than 7.00.
`CCOc1cncc(-c2cnc(C(=O)N3CCNC[C@H]3c3cc(NS(=O)(=O)C4CC4)ccn3)s2)n1` [I-211, (S)—N-(2-(1-(5-(6-ethoxypyrazin-2-yl)thiazole-2-carbonyl)piperazin-2-yl)pyridin-4-yl)cyclopropanesulfonamide] gave a pIC50 of 6.00 to 7.00.
The same measure for `CCOc1cncc(-c2cnc(C(=O)N3CCNC[C@@H]3c3cc(NS(=O)(=O)C4CC4)ccn3)s2)n1` [I-212, (R)—N-(2-(1-(5-(6-ethoxypyrazin-2-yl)thiazole-2-carbonyl)piperazin-2-yl)pyridin-4-yl)cyclopropanesulfonamide]: more than 7.00.
The same measure for `O=C(NCc1cc(NS(=O)(=O)C2CC2)ccn1)c1ncc(-c2cnc3[nH]cc(CC(F)F)c3n2)s1` [I-215]: more than 7.00.
In the case of `CCOc1cncc(-c2cnc(C(=O)NC(CN3CC(F)C3)c3cc(NS(=O)(=O)C4CC4)ccn3)s2)n1` (stereo not drawn) [I-216], the pIC50 was more than 7.00.
The figure for `CCOc1cncc(-c2cnc(C(=O)NC(CN3CCNCC3)c3cc(NS(=O)(=O)C4CC4)ccn3)s2)n1` (stereo not drawn) [I-217, N-(1-(4-(cyclopropanesulfonamido)pyridin-2-yl)-2-(piperazin-1-yl)ethyl)-5-(6-ethoxypyrazin-2-yl)thiazole-2-carboxamide] is more than 7.00; for `CCOc1cncc(-c2cnc(C(=O)N3CCN(C)CC3c3cc(NS(=O)(=O)C4CC4)ccn3)s2)n1` (stereo not drawn) [I-218, N-(2-(1-(5-(6-ethoxypyrazin-2-yl)thiazole-2-carbonyl)-4-methylpiperazin-2-yl)pyridin-4-yl)cyclopropanesulfonamide] it is 6.00 to 7.00.
